The values below come from BindingDB's records for doi:10.1021/acsmedchemlett.9b00552 (Bristol-Myers Squibb Research & Development, 2020).

Molecules are shown by their SMILES.

The target in the assay is T1, TGF-beta receptor type-1 (Homo sapiens, UniProt P36897).
T1 sequence (P36897 whole entry): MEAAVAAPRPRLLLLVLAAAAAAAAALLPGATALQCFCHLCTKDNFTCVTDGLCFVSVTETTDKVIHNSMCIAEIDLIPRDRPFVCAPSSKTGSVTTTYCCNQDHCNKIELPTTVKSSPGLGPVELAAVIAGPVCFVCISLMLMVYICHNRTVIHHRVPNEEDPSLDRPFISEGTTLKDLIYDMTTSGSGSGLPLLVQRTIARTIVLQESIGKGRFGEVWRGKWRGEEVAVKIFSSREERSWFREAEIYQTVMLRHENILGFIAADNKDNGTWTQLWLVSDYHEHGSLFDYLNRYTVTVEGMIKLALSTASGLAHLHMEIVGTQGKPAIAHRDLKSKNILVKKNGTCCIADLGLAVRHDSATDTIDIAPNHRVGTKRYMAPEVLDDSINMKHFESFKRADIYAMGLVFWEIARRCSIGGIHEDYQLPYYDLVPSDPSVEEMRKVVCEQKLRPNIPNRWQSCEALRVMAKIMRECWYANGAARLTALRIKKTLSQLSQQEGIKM
The assay is described as follows: Inhibition of TGFbetaR1 in TGFbeta-stimulated mink Mv1Lu cells assessed as reduction in SMAD nuclear translocation preincubated for 1 hr followed by TGFbeta-stimulation for 15 mins by array scan based method.

On to `Cc1cccc(-c2ncn(CC(F)F)c2-c2ccc3nccn3c2)n1`, for which the IC50 (as a rule, the midpoint of a concentration-inhibition curve) worked out at 420 nM.
Regarding `N#Cc1cnc2ccc(-c3c(-c4ccc(F)c(Cl)c4)ncn3CCO)nn12` [6-(4-(3-chloro-4-fluorophenyl)-1-(2-hydroxyethyl)-1H-imidazol-5-yl)imidazo[1,2-b]pyridazine-3-carbonitrile], the IC50 stood at 350 nM.
